Results from US20230114241A1, “METHODS OF TREATING EPILEPSY USING THE SAME” (Trevena, Inc., priority 2019, published 2023).

What was measured:
[1] = biological target: T1, human sphingosine-1-phosphate receptor 1 (S1P1) (Homo sapiens, UniProt P21453); assay: Inhibition of cAMP production (HTRF cAMP HiRange), S1P1 CHO-K1 cells; format: cell-based; conditions: for Emax: CHO-K1, efficacy normalized to maximum efficacy of fingolimod, read-out: hS1P1 CAMP SPAN; for EC50: read-out: hS1P1 CAMP pEC50 (converted)
Procedure, shortened: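 CHO-K1 cells co-expressing human S1P1 (C-terminal ProLink tag) and EA-β-arrestin2, plated overnight; after 30 min compound incubation at 37 °C, intracellular cAMP measured by HTRF TR-FRET following 1 h at room temperature. Values normalized to fingolimod.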
Target sequence in this assay (P21453 whole entry): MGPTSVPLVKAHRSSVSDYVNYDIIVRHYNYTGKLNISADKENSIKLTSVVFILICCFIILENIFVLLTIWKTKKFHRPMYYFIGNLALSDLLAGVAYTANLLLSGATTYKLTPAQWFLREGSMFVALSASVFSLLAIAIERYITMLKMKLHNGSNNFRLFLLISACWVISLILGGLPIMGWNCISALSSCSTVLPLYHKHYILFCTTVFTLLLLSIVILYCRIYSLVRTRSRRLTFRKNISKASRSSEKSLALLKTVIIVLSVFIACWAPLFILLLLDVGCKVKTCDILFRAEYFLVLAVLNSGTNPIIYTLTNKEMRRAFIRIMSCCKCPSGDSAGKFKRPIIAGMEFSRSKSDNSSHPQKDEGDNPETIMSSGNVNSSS

[2] = biological target: T1, human sphingosine-1-phosphate receptor 1 (S1P1); assay: β-Arrestin2 recruitment assay (PathHunter), S1P1 CHO-K1 cells; format: cell-based; conditions: for Emax: efficacy normalized to maximum efficacy of fingolimod, read-out: hS1P1 B-arrestin2 SPAN; for EC50: β-arrestin2 recruitment, read-out: hS1P1 B-arrestin2 pEC50 (converted)
Procedure, shortened: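 CHO-K1 cells co-expressing EA-β-arrestin2 and ProLink-tagged human S1P1 plated overnight, then stimulated 60 min at 37 °C. Enzyme-fragment complementation (β-galactosidase) detected after 1 h at room temperature by luminescence; values normalized to fingolimod.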
Target sequence in this assay (P21453 whole entry): as above
Target sequence in this assay (P32121 whole entry partner): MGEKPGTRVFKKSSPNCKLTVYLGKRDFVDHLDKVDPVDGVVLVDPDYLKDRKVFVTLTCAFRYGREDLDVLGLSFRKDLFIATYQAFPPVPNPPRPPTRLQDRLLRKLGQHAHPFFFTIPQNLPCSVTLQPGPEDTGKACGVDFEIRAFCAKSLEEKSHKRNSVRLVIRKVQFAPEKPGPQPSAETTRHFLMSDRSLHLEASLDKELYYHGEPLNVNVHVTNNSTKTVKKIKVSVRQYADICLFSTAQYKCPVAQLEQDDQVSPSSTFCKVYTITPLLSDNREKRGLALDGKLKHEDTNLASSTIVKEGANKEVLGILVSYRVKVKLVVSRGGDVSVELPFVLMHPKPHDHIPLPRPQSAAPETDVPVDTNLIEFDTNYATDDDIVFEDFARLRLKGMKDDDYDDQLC

[3] = inhibition of cAMP production, potency
[4] = CHO-K1, β-arrestin2 recruitment
[5] = inhibition of cAMP production, S1P1

SMILES | Emax ([1]; inhibition of cAMP production) | EC50 [1, 3] | Emax [2, 4] | EC50 ([2]; potency) | Emax [1] | EC50 [1, 5] | Emax ([2]; CHO-K1) | EC50 ([2]; S1P1)
CCC1(CC)CC(=O)c2cc(-c3nc(-c4ccc(C(=O)N(C)C)cc4)no3)ccc2O1 [Compound 151, 4-(5-(2,2-diethyl-4-oxochroman-6-yl)-1,2,4-oxadiazol-3-yl)-N,N-dimethylbenzamide] | > 75% | > 0.316 µM | > 75% | > 10 µM | – | – | – | –
COc1cccc(-c2noc(-c3ccc4c(c3)nnn4C(C)C)n2)c1 [Compound 228, 5-(1-isopropyl-1H-benzo[d][1,2,3]triazol-5-yl)-3-(3-methoxy-phenyl)-1,2,4-oxadiazole] | < 75% | > 0.316 µM | < 75% | > 10 µM | – | – | – | –
CCC1(CC)CC(=O)c2cc(-c3noc(-c4ccc(NCC5CC5)c(C#N)c4)n3)ccc2O1 [Compound 444, 2-((cyclopropyl-methyl)amino)-5-(3-(2,2-diethyl-4-oxochroman-6-yl)-1,2,4-oxadiazol-5-yl)benzonitrile] | – | – | – | – | < 75% | > 0.316 µM | < 75% | < 10 µM
CC(C)n1nnc2cc(-c3nc(-c4ccccc4Cl)no3)ccc21 [Compound 17] | > 75% | < 0.316 µM | > 75% | < 10 µM | – | – | – | –
Cc1cc(-c2nc(-c3ccc4c(c3)nnn4C(C)C)no2)cnc1C [Compound 201, 5-(5,6-dimethyl-pyridin-3-yl)-3-(1-isopropyl-1H-benzo[d][1,2,3]triazol-5-yl)-1,2,4-oxadiazole] | < 75% | > 0.316 µM | > 75% | > 10 µM | – | – | – | –
COc1ccccc1-c1noc(-c2ccc3[nH]ccc3c2)n1 [Compound 368, 5-(1H-indol-5-yl)-3-(2-methoxyphenyl)-1,2,4-oxadiazole] | < 75% | > 0.316 µM | < 75% | > 10 µM | – | – | – | –
CC(C)n1nnc2cc(-c3cc(-c4ccccc4)n(C)c3)ccc21 [Compound 544, 5-(1-methyl-5-phenyl-1H-pyrrol-3-yl)-1-(propan-2-yl)-1H-1,2,3-benzotriazole] | – | – | – | – | < 75% | > 0.316 µM | < 75% | < 10 µM
Cc1ccncc1-c1noc(-c2cnc3c(c2)nnn3C(C)C)n1 [Compound 414, 4-methyl-3-{5-[3-(propan-2-yl)-3H-[1,2,3]triazolo[4,5-b]pyridin-6-yl]-1,2,4-oxadiazol-3-yl}pyridine] | – | – | – | – | < 75% | < 0.316 µM | > 75% | > 10 µM
CC(C)n1nnc2cc(-c3ncc(-c4ccccc4F)s3)ccc21 [Compound 63, 5-(2-fluorophenyl)-2-(1-isopropyl-1H-benzo[d][1,2,3]triazol-5-yl)thiazole] | < 75% | < 0.316 µM | < 75% | > 10 µM | – | – | – | –
CCC1(CC)CC(=O)c2cc(-c3nc(-c4ccc5c(c4)CCC(=O)N5)no3)ccc2O1 [Compound 415, 6-(5-(2,2-diethyl-4-oxochroman-6-yl)-1,2,4-oxadiazol-3-yl)-3,4-dihydroquinolin-2(1H)-one] | – | – | – | – | < 75% | < 0.316 µM | > 75% | > 10 µM
CC(C)Cn1nnc2cc(-c3nc(-c4ccccc4Cl)no3)ccc21 [Compound 289, 5-[3-(2-chlorophenyl)-1,2,4-oxadiazol-5-yl]-1-(2-methylpropyl)-1H-1,2,3-benzotriazole] | < 75% | > 0.316 µM | < 75% | > 10 µM | – | – | – | –
COc1ccccc1-c1nc(-c2ccc3c(ccn3C(C)C)c2)ns1 [Compound 375, 5-[5-(2-methoxy-phenyl)-1,2,4-thiadiazol-3-yl]-1-(propan-2-yl)-1H-indole] | – | – | – | – | > 75% | < 0.316 µM | < 75% | < 10 µM
COc1ccc(-c2nc(-c3cccc4[nH]ccc34)ns2)cc1 [Compound 361, 4-[5-(4-methoxyphenyl)-1,2,4-thiadiazol-3-yl]-1H-indole] | < 75% | > 0.316 µM | < 75% | > 10 µM | – | – | – | –
